Results on five compounds are retold here after patent publication US12441710B2, “Substituted piperidino compounds and related methods of treatment” (Alkermes, Inc., priority 2020, dated 2025).

pEC50: −log10 of the molar value.

One data set concerns MDR1. The experiment in a line: MDCK-MDR1 permeability assay. The data set is classed as in vitro ADME. The following applies: dog, 3 μM test compound; for efflux ratio at 2 h, 3 μM: Papp (B→A) divided by Papp (A→B), read-out: Efflux ratio (ER); for Papp A→B at 2 h, 3 μM: apical to basolateral, 2 hours at 37 degrees C. On the procedure: The bidirectional permeability (Apical to Basal and Basal to Apical directions) of test compounds in MDCK-MDR1 cells were evaluated using MDCK-MDR1 cells seeded in Solvo PreadyPort™ MDCK 96-well plate. Once the plate was received from ReadyCell (Barcelona, Spain), it was treated as per PreadyPort™ user's manual.
For the Apical to Basolateral (A→B) permeability, 80 μL of test compound (3 μM) co-dosed with LY (Lucifer Yellow) (100 μM) in HBSS (Hank's Balanced Salt Solution) assay buffer was added to the donor side (A) while 250 μL of HBSS buffer was added to the receiver side (B). For the Basolateral to Apical (B→A) permeability, 255 μL of test compound (3 μM) in HBSS assay buffer was added to the donor side (B) while 75 μL of HBSS buffer containing LY (100 μM) was added to the receiver side (A).
The plate was placed in an incubator set at 37 degrees C. After 10 minutes of pre-warming, 5 μL aliquot was taken from donor compartment and set aside as the dosing solution. The MDCK-MDR1 incubation plate was placed back into the incubator for 2 hours of incubation at 37 degrees C. After 2 hours of incubation, 25 μL and 5 μL aliquots were removed from the receiver and donor sides, respectively. To the 5 μL aliquots taken from the donor sides (before and after a 2-hour incubation) were diluted with 20 μL of the HBSS buffer. All samples were mixed with 150 μL with acetonitrile containing internal standard (IS) and 200 μL water, and analyzed by LC-MS/MS.
The apparent permeability (Papp) was calculated using the following formula: Papp=dQ/dt×1/A×C0 where: • dQ/dt: amount of translocated material over incubation time (nmol/s) • A: area of insert (0.14 cm^2 for PreadyPort™ MDR1-96) • C0: initial concentration of product applied in apical (A→B) or basal (B→A) compartment (nmol/mL).
The efflux ratio (ER) was measured by dividing the Papp (basolateral to apical direction) by Papp (apical to basolateral direction). It is a general measure of the involvement of active processes. An ER >2 is considered positive for active transport.
The data reported in Table 3 were obtained according to the MDCK-MDR1 permeability assay described above.

A further data set deals with human hepatocytes. In words: Hepatocytes stability assay (human hepatocytes). The data set is classed as in vitro ADME. The conditions noted are these: hepatic clearance divided by liver blood flow, fu assumed unity. The gist of the method:
(§1)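 Pooled cryopreserved human hepatocytes (50 donors, mixed gender), 1×10^6 cells/mL in KHB, with 1 μM compound (0.1% DMSO) at 37 degrees C, sampled 0–240 min. Parent depletion by LC-MS/MS; first-order fit gave T1/2 and CLint, scaled to hepatic clearance by well-stirred model with fu assumed 1, plus extraction ratio.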

Data set [1] is described as follows: Hepatocytes stability assay (human hepatocytes). In kind it is in vitro ADME. The following applies: both sexes, cryopreserved hepatocytes, 1 μM test compound, 1×10^6 cell/mL, read-out: CLint (μL/min/million cells). The gist of the method:
as §1

Data set [2] has as its target T1, human orexin-2 receptor (OX2R) (Homo sapiens, UniProt O43614).
T1 construct: expressed in transfected cells
T1 sequence (O43614 1-444): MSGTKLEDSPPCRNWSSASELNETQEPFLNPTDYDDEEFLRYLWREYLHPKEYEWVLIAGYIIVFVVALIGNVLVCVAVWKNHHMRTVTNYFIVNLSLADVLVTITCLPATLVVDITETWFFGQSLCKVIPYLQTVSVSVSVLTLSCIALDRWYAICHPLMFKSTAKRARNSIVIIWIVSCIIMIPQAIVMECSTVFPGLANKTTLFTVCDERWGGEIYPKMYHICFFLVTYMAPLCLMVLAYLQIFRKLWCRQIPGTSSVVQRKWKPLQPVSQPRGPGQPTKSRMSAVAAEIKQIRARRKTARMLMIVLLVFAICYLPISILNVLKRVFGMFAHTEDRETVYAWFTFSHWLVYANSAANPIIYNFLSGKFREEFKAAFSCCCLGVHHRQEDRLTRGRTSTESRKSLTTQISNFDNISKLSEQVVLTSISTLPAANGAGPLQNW
In words: Human OX2R IP1 assay. The data set is classed as cell-based. The following applies: T-Rex CHO cells stably overexpressing human OX2R; IP1 accumulation, 1 hr at 37 degrees C. The method, then:
T-Rex CHO cells stably overexpressing the human orexin-2 receptor (OX2R) were induced overnight with 1 μg/mL of doxycycline in a T225 flask. 24 hours post induction, cells were lifted with accutase and plated into a 384-well proxy plate at 30,000 cells/well. Cells were then treated with different test compounds in 1× stimulation buffer containing 10 mM Hepes, 1 mM CaCl2), 0.5 mM MgCl2, 4.2 mM KCl, 146 mM NaCl, 5.5 mM glucose, and 50 mM LiCl, pH 7.4, for 1 hr at 37 degrees C. Following incubation, the reaction was terminated by the addition of detection mix, which is composed of IP1-d2 and anti-IP1-cryptate diluted in lysis buffer as well as 1× stimulation buffer. The plates were allowed to incubate for 1 hour at room temperature and were then read in the EnVision® multimode plate reader, measuring inositol phosphate levels.
Cisbio IP1 is a cell-based functional assay quantifying the accumulation of inositol monophosphate (IP), a metabolite released as a result of orexin 2 receptor activation through the phospholipase C-Gq signaling pathway. This is a competitive immunoassay in which the IP1 produced by the cells upon receptor activation competes with the IP1 analog coupled to the d2 fluorophore (acceptor) for binding to an anti-IP1 monoclonal antibody labeled with Eu cryptate (donor). The measured HTRF-FRET based signal is inversely proportional to the IP1 concentration produced.
The EC50 values reported in Table 2 were obtained according to the human OX2R IP1 assay described above. Data are the mean EC50 values±S.E.M. The compound methyl (2R,3S)-3-((methylsulfonyl)amino)-2-(((cis-4-phenylcyclohexyl)oxy)methyl)-piperidine-1-carboxylate (sometimes referred to herein as Reference Compound A) is a reference compound which is disclosed in Example 5 of PCT publication no. WO2017/135306.

A further data set concerns Sprague-Dawley rats. In words: Assessment of wake promotion in Sprague-Dawley rats (EEG/EMG). In kind it is in vivo, rat. The conditions noted are these: 3 mpk, male Sprague-Dawley rats, 6-hour post-dose period. On the procedure:
Wake promotion was assessed using electroencephalography (EEG) and electromyography (EMG) in adult male Sprague-Dawley rats. All rats (Charles River Laboratories, Raleigh, NC, USA) were intraperitoneally implanted with telemetry devices (F50-EEE, Data Sciences International Inc., MN, USA) under isoflurane anesthesia. For EEG, stainless steel screws were implanted over frontal cortex and parietal cortex, and reference screws were placed over cerebellum. Additionally, an electrode was placed in neck muscle for EMG. Rats were given carprofen post-surgery and underwent a 7 to 10-day recovery period. Rats habituated to the experimental room for 7 days and were maintained on a 12-hour light-dark cycle.
EEG and EMG data were recorded using the DSI telemetry system and Ponemah software (Data Sciences International Inc., MN, USA). Sleep-wake stages were scored both manually and with Somnivore, a supervised machine learning software platform, in 10 second epochs. Records were visually inspected as needed post-processing.
All test compounds were dissolved in 5% DMSO and suspended in 95% saline with 0.5% methylcellulose and 0.5% tween. […] Unless otherwise indicated, all compounds were dosed orally. Recordings for each rat were initiated immediately after dosing and lasted for 6 hours post-dose.
Two key endpoints include wakefulness time and cortical activation time. […]

For the compound `CS(=O)(=O)N[C@H]1CCN(c2ccccn2)C[C@H]1CO[C@H]1CC[C@@H](c2cccc(F)c2)CC1` [Compound 6], in the data set with MDR1, the efflux ratio at 2 h, 3 μM was 2.8 and the Papp A→B – broadly, the apparent permeability from the apical to the basolateral side of a cell layer – at 2 h, 3 μM turned out to be 1.3 ×10⁻⁶ cm/s. Also, in the data set with human hepatocytes, the “Extraction Ratio (ER)” value was 0.87. In addition, the hepatocyte CLint at 1 μM in data set [1] was 44 µL/min/1e6 cells. Further, the negative-log EC50 (pEC50) (usually the negative decadic logarithm of the EC50, by convention in mol/L) in data set [2] is more than 7.00.

As for `C[C@@H](c1ccccc1)N1CC[C@H](NS(C)(=O)=O)C(COC2CCC(c3ccccc3)CC2)C1` (some centres unmarked) [Compound 37], in the data set on MDR1, the efflux ratio at 2 h, 3 μM was found to be 12 and the apical-to-basolateral permeability (Papp A→B) at 2 h, 3 μM turned out to be 0.38 ×10⁻⁶ cm/s. Moreover, the “Extraction Ratio (ER)” value in the data set with human hepatocytes is on record as 0.94. Also, in data set [1], the hepatocyte CLint at 1 μM came to 99 µL/min/1e6 cells. The compound further gave a negative logarithm of the EC50 (pEC50) in data set [2] of less than 6.00.

On to `C[C@H](c1ccccc1)N1CC[C@H](NS(C)(=O)=O)C(COC2CCC(c3ccccc3)CC2)C1` (some centres unmarked) [Compound 38], for which, in the data set on MDR1, the efflux ratio at 2 h, 3 μM was determined as 3.2 and the Papp A→B at 2 h, 3 μM came out at 0.74 ×10⁻⁶ cm/s. Also, the “Extraction Ratio (ER)” value in the data set on human hepatocytes worked out at 0.93. Further, in data set [1], the hepatocyte CLint at 1 μM worked out at 91 µL/min/1e6 cells. Further, the pEC50 in data set [2] was less than 6.00.

Regarding `O=S(=O)(N[C@H]1CCN(c2ccccn2)C[C@H]1CO[C@H]1CC[C@@H](c2ccccc2)CC1)C(F)(F)F` [Compound 53], the “Mean cortical activation time (% vehicle treatment)” value in the data set on Sprague-Dawley rats (PO) is recorded as 105.00 % vehicle treatment. This compound had a pEC50 in data set [2] of more than 7.00.

Take `COC(=O)N1CCC[C@H](NS(C)(=O)=O)[C@@H]1CO[C@H]1CC[C@@H](c2ccccc2)CC1` [Reference Compound A, methyl (2R,3S)-3-((methylsulfonyl)amino)-2-(((cis-4-phenylcyclohexyl)oxy)methyl)-piperidine-1-carboxylate, reference compound]: the “Mean cortical activation time (% vehicle treatment)” value with Sprague-Dawley rats (SC) stood at 118.75 % vehicle treatment. Also, the “Extraction Ratio (ER)” value with human hepatocytes stood at 0.92. For the same compound, the pEC50 in data set [2] is more than 7.00.
